According to patent US9499550B2 (BRISTOL-MYERS SQUIBB COMPANY, priority 2012, dated 2016):
Read-outs that look alike come from different tables or passages of the source.

Tests used:
[1] = tested on: HCV genotype 1a (H77 strain) replicon in HUH-7 cells; assay: HCV replicon luciferase reporter assay, genotype 1a; assay type: cell-based; details: Hepatitis C virus, Huh-7, 72 h, 3 days incubation, read-out: LE_1a (EC50, range)
Summary of the method: (§1)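 Replicon inhibition for both genotypes was measured as Renilla luciferase signal (EnduRen, 7.5 μM final, 2 h) after 3-day, 37° C exposure of replicon-bearing HUH-7 cells in 4% FCS DMEM, 0.5% DMSO. The 1b construct carries S1179I; the 1a H77 construct carries P1496L and S2204I. Twenty-point, 3-fold dilutions were fitted four-parametrically for EC50, and CC50 was taken from multiplexed Cell Titer-Blue.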

[2] = tested on: HCV genotype 1b (Con1) replicon in HUH-7 cells; assay: HCV replicon luciferase reporter assay, genotype 1b; assay type: cell-based; details: Hepatitis C virus, Huh-7, 72 h, 3 days incubation, read-out: LE_1b (EC50, range)
Summary of the method: as §1

[3] = HCV genotype 1a replicon luciferase
[4] = HCV genotype 1b replicon luciferase
[5] = HCV genotype 1a replicon luciferase assay, range class
[6] = HCV genotype 1b replicon luciferase assay, range class
[7] = GETYPE1A, HCV genotype 1a replicon luciferase
[8] = GETYPE1B, HCV genotype 1b replicon luciferase

For CC(C)Oc1ccc2c(O[C@@H]3C[C@H]4C(=O)N[C@]5(C(=O)NS(=O)(=O)C6(C)CC6)C[C@H]5/C=C\CC[C@@H](C)C[C@@H](C)[C@H](NC(=O)O[C@H](C)C(F)(F)F)C(=O)N4C3)nccc2c1 [Compound 5161, (R)-1,1,1-trifluoropropan-2-yl ((2R,6S,7R,9R,13aS,14aR,16aS,Z)-2-((6-isopropoxyisoquinolin-1-yl)oxy)-7,9-dimethyl-14a-(((1-methylcyclopropyl)sulfonyl)carbamoyl)-5,16-dioxo-1,2,3,5,6,7,8,9,10,11,13a,14,14a,15,16,16a-hexadecahydrocyclopropa[e]pyrrolo[1,2-a][1,4]diazacyclopentadecin-6-yl)carbamate], the EC50 [1, 3] was less than 5.46 nM and the EC50 [2, 4] was less than 5.46 nM.

In the case of CCOc1cc2ccnc(O[C@@H]3C[C@H]4C(=O)N[C@]5(C(=O)NS(=O)(=O)C6CC6)C[C@H]5/C=C\CC[C@@H](C)C[C@@H](C)[C@H](NC(=O)OC(C)(C)C(C)(F)F)C(=O)N4C3)c2cc1F [Compound 5403, 3,3-difluoro-2-methylbutan-2-yl((2R,6S,7R,9R,13aS,14aR,16aS,Z)-14a-((cyclopropylsulfonyl)carbamoyl)-2-((6-ethoxy-7-fluoroisoquinolin-1-yl)oxy)-7,9-dimethyl-5,16-dioxo-1,2,3,5,6,7,8,9,10,11,13a,14,14a,15,16,16a-hexadecahydrocyclopropa[e]pyrrolo[1,2-a][1,4]diazacyclopentadecin-6-yl)carbamate], the EC50 [1, 3] is reported as 0.51 to 1 nM and the EC50 [2, 4] is reported as 0.1 to 0.5 nM.

Work on COc1cc2ccnc(O[C@@H]3C[C@H]4C(=O)N[C@]5(C(=O)NS(=O)(=O)C6(CF)CC6)C[C@H]5/C=C\CC[C@@H](C)C[C@@H](C)[C@H](N)C(=O)N4C3)c2cc1F [Compound 4235, (2R,6S,7R,9R,13aS,14aR,16aS,Z)-6-amino-2-(7-fluoro-6-methoxyisoquinolin-1-yloxy)-N-(1-(fluoromethyl)cyclopropylsulfonyl)-7,9-dimethyl-5,16-dioxo-1,2,3,5,6,7,8,9,10,11,13a,14,14a,15,16,16a-hexadecahydrocyclopropa[e]pyrrolo[1,2-a][1,4]diazacyclopentadecine-14a-carboxamide] yielded an EC50 [1, 3] of 4.82 to 103 nM and an EC50 [2, 4] of 4.82 to 103 nM.

In the case of CC[C@@H]1C[C@@H](C)CC/C=C\[C@@H]2C[C@@]2(C(=O)NS(=O)(=O)C2(C)CC2)NC(=O)[C@@H]2C[C@@H](Oc3nc(OC)cc4cc(OC)ccc34)CN2C(=O)[C@H]1NC(=O)OC1(C(F)(F)F)COC1 [Compound 1121, 3-(trifluoromethyl)oxetan-3-yl((2R,6S,7R,9S,13aS,14aR,16aS,Z)-2-((3,6-dimethoxyisoquinolin-1-yl)oxy)-7-ethyl-9-methyl-14a-(((1-methylcyclopropyl)sulfonyl)carbamoyl)-5,16-dioxo-1,2,3,5,6,7,8,9,10,11,13a,14,14a,15,16,16a-hexadecahydrocyclopropa[e]pyrrolo[1,2-a][1,4]diazacyclopentadecin-6-yl)carbamate], the EC50 [1, 5] is reported as less than 5.46 nM and the EC50 [2, 6] is reported as less than 5.46 nM.

With CC(C)Oc1cc2c(Cl)cccc2c(O[C@@H]2C[C@H]3C(=O)N[C@]4(C(=O)NS(=O)(=O)C5CC5)C[C@H]4/C=C\CC[C@H](C)C[C@@H](C)[C@H](NC(=O)OC(C)(C)C(C)(F)F)C(=O)N3C2)n1 [Compound 1105, 3,3-difluoro-2-methylbutan-2-yl((2R,6S,7R,9S,13aS,14aR,16aS,Z)-2-((5-chloro-3-isopropoxyisoquinolin-1-yl)oxy)-14a-((cyclopropylsulfonyl)carbamoyl)-7,9-dimethyl-5,16-dioxo-1,2,3,5,6,7,8,9,10,11,13a,14,14a,15,16,16a-hexadecahydrocyclopropa[e]pyrrolo[1,2-a][1,4]diazacyclopentadecin-6-yl)carbamate] the EC50 [1, 5] was less than 5.46 nM and the EC50 [2, 6] was less than 5.46 nM.

Compound CCOc1cc2ccnc(O[C@@H]3C[C@H]4C(=O)N[C@]5(C(=O)NS(=O)(=O)C6CC6)C[C@H]5/C=C\CC[C@@H](C)C[C@@H](CC)[C@H](NC(=O)OC(C)(C)C(F)(F)F)C(=O)N4C3)c2cc1F [Compound 5407, 1,1,1-trifluoro-2-methylpropan-2-yl((2R,6S,7R,9R,13aS,14aR,16aS,Z)-14a-((cyclopropylsulfonyl)carbamoyl)-2-((6-ethoxy-7-fluoroisoquinolin-1-yl)oxy)-7-ethyl-9-methyl-5,16-dioxo-1,2,3,5,6,7,8,9,10,11,13a,14,14a,15,16,16a-hexadecahydrocyclopropa[e]pyrrolo[1,2-a][1,4]diazacyclopentadecin-6-yl)carbamate] has an EC50 [1, 3] of 1.01 to 5 nM and an EC50 [2, 4] of 0.51 to 1 nM.

Compound CCOc1cc2ccnc(O[C@@H]3C[C@H]4C(=O)N[C@]5(C(=O)NS(=O)(=O)C6(C)CC6)C[C@H]5/C=C\CC[C@@H](C)C[C@@H](CC)[C@H](NC(=O)OC(C)(C)C(F)F)C(=O)N4C3)c2cc1F [Compound 5525, 1,1-difluoro-2-methylpropan-2-yl((2R,6S,7R,9R,13aS,14aR,16aS,Z)-2-((6-ethoxy-7-fluoroisoquinolin-1-yl)oxy)-7-ethyl-9-methyl-14a-(((1-methylcyclopropyl)sulfonyl)carbamoyl)-5,16-dioxo-1,2,3,5,6,7,8,9,10,11,13a,14,14a,15,16,16a-hexadecahydrocyclopropa[e]pyrrolo[1,2-a][1,4]diazacyclopentadecin-6-yl)carbamate] has an EC50 [1, 3] of 1.01 to 5 nM and an EC50 [2, 4] of 0.51 to 1 nM.

COc1ccc2c(O[C@@H]3C[C@H]4C(=O)N[C@]5(C(=O)NS(=O)(=O)C6CC6)C[C@H]5/C=C\CC[C@H](C)C[C@@H](C)[C@H](NC(=O)OC(C)(C)C(F)(F)F)C(=O)N4C3)nc(-c3ccc(OC(C)C)cc3)nc2c1 [Compound 3021, 1,1,1-trifluoro-2-methylpropan-2-yl((2R,6S,7R,9S,13aS,14aR,16aS,Z)-14a-((cyclopropylsulfonyl)carbamoyl)-2-((2-(4-isopropoxyphenyl)-7-methoxyquinazolin-4-yl)oxy)-7,9-dimethyl-5,16-dioxo-1,2,3,5,6,7,8,9,10,11,13a,14,14a,15,16,16a-hexadecahydrocyclopropa[e]pyrrolo[1,2-a][1,4]diazacyclopentadecin-6-yl)carbamate] showed an EC50 [1, 5] of less than 5.46 nM and an EC50 [2, 6] of less than 5.46 nM.

Work on CC[C@@H]1C[C@@H](C)CC/C=C\[C@@H]2C[C@@]2(C(=O)NS(=O)(=O)C2(CF)CC2)NC(=O)[C@@H]2C[C@@H](Oc3nc(OC)cc4cc(OC)ccc34)CN2C(=O)[C@H]1NC(=O)OC(C)(C)C(F)(F)F [Compound 1194] yielded an EC50 [1, 7] of 5.01 to 35 nM and an EC50 [2, 8] of 1.01 to 5 nM.

With COc1ccc2c(O[C@@H]3C[C@H]4C(=O)N[C@]5(C(=O)NS(=O)(=O)C6(C)CC6)C[C@H]5/C=C\CC[C@@H](C)C[C@@H](C)[C@H](NC(=O)OC(C)(C)C(F)(F)F)C(=O)N4C3)nc(-c3ccc(OC(C)C)cc3)cc2c1 [Compound 4064] the EC50 [1, 7] was less than 5.46 nM and the EC50 [2, 8] was less than 5.46 nM.

CC[C@@H]1C[C@H](C)CC/C=C\[C@@H]2C[C@@]2(C(=O)NS(=O)(=O)C2(C)CC2)NC(=O)[C@@H]2C[C@@H](Oc3nccc4c5c(ccc34)OCCO5)CN2C(=O)[C@H]1NC(=O)OC(C)(C)C [Compound 5340, tert-butyl ((2R,6S,7R,9R,13aS,14aR,16aS,Z)-2-((2,3-dihydro-[1,4]dioxino[2,3-f]isoquinolin-7-yl)oxy)-7-ethyl-9-methyl-14a-(((1-methylcyclopropyl)sulfonyl)carbamoyl)-5,16-dioxo-1,2,3,5,6,7,8,9,10,11,13a,14,14a,15,16,16a-hexadecahydrocyclopropa[e]pyrrolo[1,2-a][1,4]diazacyclopentadecin-6-yl)carbamate] was tested, and the EC50 [1, 3] was less than 5.46 nM and the EC50 [2, 4] was less than 5.46 nM.

[2H]C([2H])([2H])C(C)(OC(=O)N[C@@H]1C(=O)N2C[C@H](Oc3nccc4c5c(ccc34)N(C)CCO5)C[C@H]2C(=O)N[C@]2(C(=O)NS(=O)(=O)C3CC3)C[C@H]2/C=C\CC[C@H](C)C[C@H]1C)C([2H])([2H])[2H] [Compound 5285, 1,1,1,3,3,3-hexadeutero-2-methylpropan-2-yl((2R,6S,7R,9S,13aS,14aR,16aS,Z)-14a-((cyclopropylsulfonyl)carbamoyl)-7,9-dimethyl-2-((4-methyl-3,4-dihydro-2H-[1,4]oxazino[2,3-f]isoquinolin-7-yl)oxy)-5,16-dioxo-1,2,3,5,6,7,8,9,10,11,13a,14,14a,15,16,16a-hexadecahydrocyclopropa[e]pyrrolo[1,2-a][1,4]diazacyclopentadecin-6-yl)carbamate] was tested, and the EC50 [1, 3] was 4.82 to 103 nM and the EC50 [2, 4] was less than 5.46 nM.

With COc1ccc2c(O[C@@H]3C[C@H]4C(=O)N[C@]5(C(=O)NS(=O)(=O)C6(CF)CC6)C[C@H]5/C=C\CC[C@H](C)C[C@@H](C)[C@H](NC(=O)OC5(C(F)(F)F)CCCOC5)C(=O)N4C3)ncc(C(F)(F)F)c2c1 (stereo partly drawn) [Compound 1176, 3-(trifluoromethyl)tetrahydro-2H-pyran-3-yl((2R,6S,7R,9S,13aS,14aR,16aS,Z)-14a-(((1-(fluoromethyl)cyclopropyl)sulfonyl)carbamoyl)-2-((6-methoxy-4-(trifluoromethyl)isoquinolin-1-yl)oxy)-7,9-dimethyl-5,16-dioxo-1,2,3,5,6,7,8,9,10,11,13a,14,14a,15,16,16a-hexadecahydrocyclopropa[e]pyrrolo[1,2-a][1,4]diazacyclopentadecin-6-yl)carbamate] the EC50 [1, 5] was 4.82 to 103 nM and the EC50 [2, 6] was 4.82 to 103 nM.
